Laboratory results reported in patent publication US9446130B2, “BTK inhibitors” (MERCK SHARP & DOHME CORP., priority 2013, dated 2016).
pIC50: −log10 of the molar value.

molecular target: BTK enzyme (hBTK, full-length recombinant) (Homo sapiens (Human), UniProt Q06187); test: Btk enzyme activity assay, Method B: LANCE TR-FRET; format: biochemical; details: 25 μM ATP, 60 minute compound & enzyme incubation
Experimental: Also BTK enzymatic activity was determined with the LANCE (Lanthanide Chelate Excite) TR-FRET (Time-resolved fluorescence resonance energy transfer) assay. […] The final reaction in each well of 10 μL consists of 100 pM hBTK, 2 μM biotin-A5-peptide, and 25 μM ATP. Phosphorylation reactions were allowed to proceed for 120 minutes. […] After 60 minutes incubation with detection reagents, reaction plates were read on a PerkinElmer EnVision plate reader using standard TR-FRET protocol. Briefly, excitation of donor molecules (Eu-chelate:anti-phospho-antibody) with a laser light source at 337 nm produces energy that can be transferred to Dylight-650 acceptor molecules if this donor:acceptor pair is within close proximity. Fluorescence intensity at both 665 nm (acceptor) and 615 nm (donor) are measured and a TR-FRET ratio calculated for each well (acceptor intensity/donor intensity). IC50 values were determined by 4 parameter robust fit of TR-FRET ratio values vs. (Log10) compound concentrations. BTK enzymatic activity was determined with the LANCE (Lanthanide Chelate Excite) TR-FRET (Time-resolved fluorescence resonance energy transfer) assay. […] The final reaction in each well of 10 μL consists of 50 pM hBTK, 2 μM biotin-A5-peptide, and 25 μM ATP. Phosphorylation reactions were allowed to proceed for 120 minutes. […] After 60 minutes incubation with detection reagents, reaction plates were read on a PerkinElmer EnVision plate reader using standard TR-FRET protocol. Briefly, excitation of donor molecules (Eu-chelate:anti-phospho-antibody) with a laser light source at 337 nm produces energy that can be transferred to Dylight-650 acceptor molecules if this donor:acceptor pair is within close proximity. Fluorescence intensity at both 665 nm (acceptor) and 615 nm (donor) are measured and a TR-FRET ratio calculated for each well (acceptor intensity/donor intensity). IC50 values were determined by 4 parameter robust fit of TR-FRET ratio values vs. (Log10) compound concentrations.

BTK enzyme (hBTK, full-length recombinant), sequence (Q06187 whole entry): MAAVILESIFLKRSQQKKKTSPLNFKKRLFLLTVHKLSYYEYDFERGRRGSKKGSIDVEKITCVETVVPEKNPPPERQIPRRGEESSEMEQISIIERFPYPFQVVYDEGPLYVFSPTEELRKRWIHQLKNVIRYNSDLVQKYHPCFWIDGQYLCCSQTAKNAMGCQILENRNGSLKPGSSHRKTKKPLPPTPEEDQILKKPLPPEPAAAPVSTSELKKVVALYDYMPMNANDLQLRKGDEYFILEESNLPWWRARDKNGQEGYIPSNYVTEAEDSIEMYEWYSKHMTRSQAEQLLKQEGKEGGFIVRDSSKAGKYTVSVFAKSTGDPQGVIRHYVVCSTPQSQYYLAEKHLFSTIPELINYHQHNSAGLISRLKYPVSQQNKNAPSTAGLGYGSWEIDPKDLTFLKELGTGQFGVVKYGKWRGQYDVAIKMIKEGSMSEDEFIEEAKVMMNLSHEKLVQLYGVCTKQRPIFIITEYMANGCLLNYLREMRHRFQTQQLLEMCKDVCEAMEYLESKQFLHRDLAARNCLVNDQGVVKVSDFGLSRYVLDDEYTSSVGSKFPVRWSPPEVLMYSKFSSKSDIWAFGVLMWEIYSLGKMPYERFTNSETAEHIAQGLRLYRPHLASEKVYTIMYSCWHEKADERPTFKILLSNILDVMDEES

| pIC50 | Compound |
| --- | --- |
| 9.48 | Cn1ncc2c1CCC[C@@]2(O)c1nc(-c2ccc(C(=O)Nc3cc(C(F)(F)F)ccn3)cc2)c2c(N)nccn12 [Example 2, (S)-4-(8-amino-3-(4-hydroxy-1-methyl-4,5,6,7-tetrahydro-1H-indazol-4-yl)imidazo[1,5-a]pyrazin-1-yl)-N-(4-(trifluoromethyl)pyridin-2-yl)benzamide] |
| 8.70 | Cn1ncc2c1CCC[C@]2(O)c1nc(-c2ccc(C(=O)Nc3cc(C(F)(F)F)ccn3)cc2)c2c(N)nccn12 [Example 3, (R)-4-(8-amino-3-(4-hydroxy-1-methyl-4,5,6,7-tetrahydro-1H-indazol-4-yl)imidazo[1,5-a]pyrazin-1-yl)-N-(4-(trifluoromethyl)pyridin-2-yl)benzamide] |
| 9.28 | Nc1ncnc2c1c(-c1ccc(C(=O)Nc3cc(C(F)(F)F)ccn3)cc1)nn2[C@@H]1CCCc2[nH]ncc21 [Example 5, (R)-4-(4-amino-1-(4,5,6,7-tetrahydro-1H-indazol-4-yl)-1H-pyrazolo[3,4-d]pyrimidin-3-yl)-N-(4-(trifluoromethyl)pyridin-2-yl)benzamide] |
| 7.22 | Nc1ncnc2c1c(-c1ccc(C(=O)Nc3cc(C(F)(F)F)ccn3)cc1)nn2[C@H]1CCCc2[nH]ncc21 [Example 6, (S)-4-(4-amino-1-(4,5,6,7-tetrahydro-1H-indazol-4-yl)-1H-pyrazolo[3,4-d]pyrimidin-3-yl)-N-(4-(trifluoromethyl)pyridin-2-yl)benzamide] |
| 8.23 | Cn1ncc2c1CCC[C@H]2n1nc(-c2ccc(C(=O)Nc3cc(C(F)(F)F)ccn3)cc2)c2c(N)ncnc21 [Example 7, (R)-4-(4-amino-1-(1-methyl-4,5,6,7-tetrahydro-1H-indazol-4-yl)-1H-pyrazolo[3,4-d]pyrimidin-3-yl)-N-(4-(trifluoromethyl)pyridin-2-yl)benzamide] |
| 8.49 | Cn1cc2c(n1)CCC[C@H]2n1nc(-c2ccc(C(=O)Nc3cc(C(F)(F)F)ccn3)cc2)c2c(N)ncnc21 [Example 8, (R)-4-(4-amino-1-(2-methyl-4,5,6,7-tetrahydro-2H-indazol-4-yl)-1H-pyrazolo[3,4-d]pyrimidin-3-yl)-N-(4-(trifluoromethyl)pyridin-2-yl)benzamide] |
| 7.08 | Cn1cc2c(n1)CCC[C@@H]2n1nc(-c2ccc(C(=O)Nc3cc(C(F)(F)F)ccn3)cc2)c2c(N)ncnc21 [Example 10, (S)-4-(4-amino-1-(2-methyl-4,5,6,7-tetrahydro-2H-indazol-4-yl)-1H-pyrazolo[3,4-d]pyrimidin-3-yl)-N-(4-(trifluoromethyl)pyridin-2-yl)benzamide] |
| 8.49 | CCn1ncc2c1CCC[C@H]2n1nc(-c2ccc(C(=O)Nc3cc(C(F)(F)F)ccn3)cc2)c2c(N)ncnc21 [Example 11, (R)-4-(4-amino-1-(1-ethyl-4,5,6,7-tetrahydro-1H-indazol-4-yl)-1H-pyrazolo[3,4-d]pyrimidin-3-yl)-N-(4-(trifluoromethyl)pyridin-2-yl)benzamide] |
| 7.89 | CCn1cc2c(n1)CCC[C@H]2n1nc(-c2ccc(C(=O)Nc3cc(C(F)(F)F)ccn3)cc2)c2c(N)ncnc21 [Example 12, (R)-4-(4-amino-1-(2-ethyl-4,5,6,7-tetrahydro-2H-indazol-4-yl)-1H-pyrazolo[3,4-d]pyrimidin-3-yl)-N-(4-(trifluoromethyl)pyridin-2-yl)benzamide] |
| 8.23 | CCn1ncc2c1CCC[C@@H]2n1nc(-c2ccc(C(=O)Nc3cc(C(F)(F)F)ccn3)cc2)c2c(N)ncnc21 [Example 13, (S)-4-(4-amino-1-(1-ethyl-4,5,6,7-tetrahydro-1H-indazol-4-yl)-1H-pyrazolo[3,4-d]pyrimidin-3-yl)-N-(4-(trifluoromethyl)pyridin-2-yl)benzamide] |
| 7.27 | CCn1cc2c(n1)CCC[C@@H]2n1nc(-c2ccc(C(=O)Nc3cc(C(F)(F)F)ccn3)cc2)c2c(N)ncnc21 [Example 14, (S)-4-(4-amino-1-(2-ethyl-4,5,6,7-tetrahydro-2H-indazol-4-yl)-1H-pyrazolo[3,4-d]pyrimidin-3-yl)-N-(4-(trifluoromethyl)pyridin-2-yl)benzamide] |
| 8.96 | Nc1ncnc2c1c(-c1ccc(C(=O)Nc3cc(C(F)(F)F)ccn3)cc1)nn2[C@@H]1CCCc2c1cnn2CCO [Example 15, (R)-4-(4-amino-1-(1-(2-hydroxyethyl)-4,5,6,7-tetrahydro-1H-indazol-4-yl)-1H-pyrazolo[3,4-d]pyrimidin-3-yl)-N-(4-(trifluoromethyl)pyridin-2-yl)benzamide] |
| 9.35 | Nc1ncnc2c1c(-c1ccc(C(=O)Nc3cc(C(F)(F)F)ccn3)cc1)nn2[C@@H]1CCCc2nn(CCO)cc21 [Example 16, (R)-4-(4-amino-1-(2-(2-hydroxyethyl)-4,5,6,7-tetrahydro-2H-indazol-4-yl)-1H-pyrazolo[3,4-d]pyrimidin-3-yl)-N-(4-(trifluoromethyl)pyridin-2-yl)benzamide] |
| 8.68 | Nc1ncnc2c1c(-c1ccc(C(=O)Nc3cc(C(F)(F)F)ccn3)cc1)nn2[C@H]1CCCc2c1cnn2CCO [Example 17, (S)-4-(4-amino-1-(1-(2-hydroxyethyl)-4,5,6,7-tetrahydro-1H-indazol-4-yl)-1H-pyrazolo[3,4-d]pyrimidin-3-yl)-N-(4-(trifluoromethyl)pyridin-2-yl)benzamide] |
| 8.89 | Nc1ncnc2c1c(-c1ccc(C(=O)Nc3cc(C(F)(F)F)ccn3)cc1)nn2[C@H]1CCCc2nn(CCO)cc21 [Example 18, (S)-4-(4-amino-1-(2-(2-hydroxyethyl)-4,5,6,7-tetrahydro-2H-indazol-4-yl)-1H-pyrazolo[3,4-d]pyrimidin-3-yl)-N-(4-(trifluoromethyl)pyridin-2-yl)benzamide] |
| 7.17 | Nc1nccn2c([C@@H]3CCCn4c(C5CC5)nnc43)nc(-c3ccc(C(=O)Nc4cc(C(F)(F)F)ccn4)cc3)c12 [Example 19, (S)-4-(8-amino-3-(3-cyclopropyl-5,6,7,8-tetrahydro-[1,2,4]triazolo[4,3-a]pyridin-8-yl)imidazo[1,5-a]pyrazin-1-yl)-N-(4-(trifluoromethyl)pyridin-2-yl)benzamide] |
| 7.25 | Nc1nccn2c([C@H]3CCCn4c(C5CC5)nnc43)nc(-c3ccc(C(=O)Nc4cc(C(F)(F)F)ccn4)cc3)c12 [Example 20, (R)-4-(8-amino-3-(3-cyclopropyl-5,6,7,8-tetrahydro-[1,2,4]triazolo[4,3-a]pyridin-8-yl)imidazo[1,5-a]pyrazin-1-yl)-N-(4-(trifluoromethyl)pyridin-2-yl)benzamide] |
| 9.09 | Nc1nccn2c([C@H]3CCn4c(nnc4C(F)(F)F)C3)nc(-c3ccc(C(=O)Nc4cc(C(F)(F)F)ccn4)cc3)c12 [Example 21, (S)-4-(8-amino-3-(3-(trifluoromethyl)-5,6,7,8-tetrahydro-[1,2,4]triazolo[4,3-a]pyridin-7-yl)imidazo[1,5-a]pyrazin-1-yl)-N-(4-(trifluoromethyl)pyridin-2-yl)benzamide] |
| 7.96 | Nc1nccn2c([C@@H]3CCn4c(nnc4C(F)(F)F)C3)nc(-c3ccc(C(=O)Nc4cc(C(F)(F)F)ccn4)cc3)c12 [Example 22, (R)-4-(8-amino-3-(3-(trifluoromethyl)-5,6,7,8-tetrahydro-[1,2,4]triazolo[4,3-a]pyridin-7-yl)imidazo[1,5-a]pyrazin-1-yl)-N-(4-(trifluoromethyl)pyridin-2-yl)benzamide] |
